Measured values taken from US6369069B1 (Aventis Pharma Deutschland GmbH, priority 1998, dated 2002).

System: Na^+-dependent Cl^−/HCO3^− exchanger (NCBE)
Test: Inhibition of the Na+-dependent Cl−/HCO3− exchanger (NCBE) in human endothelial cells (pHi recovery, BCECF fluorescence, FLIPR)
Assay type: cell-based
Outline: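 Fluorescence rise (FLIPR, 2 min, 35 °C) tracked pHi recovery in acid-loaded, BCECF-loaded ECV-304 cells after adding Na+- and HCO3−-containing buffer with 50 μM HOE 642 and graded compound doses. Inhibition was calculated against full-recovery and bicarbonate-free no-recovery controls.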

[1] = compound at 10 μM, sub-table with R7 substituent
[2] = compound at 10 μM, R(3) to R(7) hydrogen series

| Compound | Residual activity % of the NCBE at 10 μM (10 μM) | other results |
| --- | --- | --- |
| Cc1ccc(CN(Cc2ccc(-c3ccccc3S(=O)(=O)NC#N)cc2)C(=O)Cc2ccccc2)cc1 [Example 125] | 63.6% |  |
| Cc1ccc(-c2ccc(CN(Cc3ccc4ccccc4c3)C(=O)CC3CCCCC3)cc2)c(S(=O)(=O)NC#N)c1 [Example 547] |  | Residual activity % of the NCBE at 10 μM [1]: 76.5% |
| N#CNS(=O)(=O)c1ccccc1-c1ccc(CN(Cc2cccs2)C(=O)NC2CCCCC2)cc1 [Example 296] | 31.7% |  |
| COc1ccc(CN(Cc2ccc(-c3ccccc3S(=O)(=O)NC#N)cc2)C(=O)c2ccc(C(C)(C)C)cc2)cc1 [Example 33] | 67.2% |  |
| COCCN(Cc1ccc(-c2ccccc2S(=O)(=O)NC#N)cc1)C(=O)Cc1c[nH]c2ccccc12 [Example 203] | 30.3% |  |
| COC(=O)C(Cc1ccccc1)N(Cc1ccc(-c2ccccc2S(=O)(=O)NC#N)cc1)C(=O)Cc1csc2ccccc12 (centres unmarked) [Example 217] | 46.0% |  |
| CC(=O)N(Cc1ccc(Cl)cc1)Cc1ccc(-c2ccccc2S(=O)(=O)NC#N)cc1 [Example 62] | 94.5% |  |
| COc1ccc(CCN(Cc2ccc(-c3ccccc3S(=O)(=O)NC#N)cc2)C(=O)c2cc3ccccc3s2)cc1 [Example 80] | 66.7% |  |
| COc1ccccc1C(=O)N(Cc1ccc(-c2ccccc2S(=O)(=O)NC#N)cc1)Cc1cccc(-c2ccccc2)c1 [Example 337] | 51.2% |  |
| C#CCN(Cc1ccc(-c2ccccc2S(=O)(=O)NC#N)cc1)C(=O)CCCCc1ccccc1 [Example 247] | 74.6% |  |
| N#CNS(=O)(=O)c1ccccc1-c1ccc(CN(Cc2cccc3ccccc23)C(=O)CCS(=O)(=O)c2ccccc2)cc1 [Example 280] | 63.3% |  |
| N#CNS(=O)(=O)c1ccccc1-c1ccc(CN(Cc2ccc(Cl)cc2Cl)C(=O)Cc2ccc(O)cc2)cc1 [Example 283] | 80.0% |  |
| N#CNS(=O)(=O)c1ccccc1-c1ccc(CN(Cc2ccccc2)C(=O)CCC2CCCCC2)cc1 [Example 7] | 33.0% |  |
| N#CNS(=O)(=O)c1ccccc1-c1ccc(CN(CCO)C(=O)c2ccccc2F)cc1 [Example 38] | 66.7% |  |
| CC(C)(C)c1ccc(C(=O)N(Cc2ccccc2)Cc2ccc(-c3ccccc3S(=O)(=O)NC#N)cc2)cc1 [Example 31] | 52.2% |  |
| CC(C)(C)CC(=O)N(CCOc1ccccc1)Cc1ccc(-c2ccccc2S(=O)(=O)NC#N)cc1 [Example 160] | 71.6% |  |
| N#CNS(=O)(=O)c1ccccc1-c1ccc(CN(C(=O)CC2CCCC2)C2CCc3ccccc32)cc1 (centres unmarked) [Example 364] | 52.6% |  |
| N#CNS(=O)(=O)c1ccccc1-c1ccc(CN(Cc2ccc(C(F)(F)F)cc2)C(=O)c2ccccc2F)cc1 [Example 99] | 89.6% |  |
| N#CNS(=O)(=O)c1ccccc1-c1ccc(CN(C(=O)CCC2CCCCC2)C2CCCCC2)cc1 [Example 12] | 92.9% |  |
| N#CNS(=O)(=O)c1ccccc1-c1ccc(CN(CCCc2ccccc2)C(=O)Cc2ccsc2)cc1 [Example 226] | 34.8% |  |
| COc1ccc(CC(=O)N(CCc2cccs2)Cc2ccc(-c3ccccc3S(=O)(=O)NC#N)cc2)cc1 [Example 172] | 89.7% |  |

| Compound | Residual activity % of the NCBE at 10 μM (10 μM) | other results |
| --- | --- | --- |
| N#CNS(=O)(=O)c1ccccc1-c1ccc(CN(Cc2ccccc2)C(=O)Cc2cccs2)cc1 [Example 25] | 16.6% |  |
| CC(=O)N(Cc1ccc(F)cc1)Cc1ccc(-c2ccccc2S(=O)(=O)NC#N)cc1 [Example 185] | 85.0% |  |
| C[C@@H](c1ccccc1)N(Cc1ccc(-c2ccccc2S(=O)(=O)NC#N)cc1)C(=O)Cc1cccs1 [Example 132] | 63.8% |  |
| COc1ccccc1CN(Cc1ccc(-c2ccccc2S(=O)(=O)NC#N)cc1)C(=O)c1ccccc1F [Example 94] | 87.7% |  |
| N#CNS(=O)(=O)c1ccccc1-c1ccc(CN(Cc2cccc(-c3ccccc3)c2)C(=O)CC2CCCC2)cc1 [Example 367] |  | Residual activity % of the NCBE at 10 μM [2]: 25.5% |
| COCCC(=O)N(Cc1ccc(-c2ccccc2S(=O)(=O)NC#N)cc1)CC1CCCO1 (centres unmarked) [Example 328] | 87.0% |  |
| N#CNS(=O)(=O)c1ccccc1-c1ccc(CN(Cc2ccccc2Cl)C(=O)c2ccccc2Cl)cc1 [Example 101] | 62.6% |  |
| CC(C)(C)CC(=O)N(CCc1cccs1)Cc1ccc(-c2ccccc2S(=O)(=O)NC#N)cc1 [Example 159] | 61.2% |  |
| COc1ccc(CCN(Cc2ccc(-c3ccccc3S(=O)(=O)NC#N)cc2)C(=O)c2ccccc2F)cc1 [Example 100] | 94.1% |  |
| COc1ccc(CN(Cc2ccc(-c3ccccc3S(=O)(=O)NC#N)cc2)C(C)=O)cc1 [Example 69] | 95.4% |  |
| COc1ccc(CN(Cc2ccc(-c3ccccc3S(=O)(=O)NC#N)cc2)C(=O)c2ccccc2F)cc1 [Example 39] | 51.3% |  |
| COc1ccc(CC(=O)N(CCOc2ccccc2)Cc2ccc(-c3ccccc3S(=O)(=O)NC#N)cc2)cc1 [Example 173] | 76.4% |  |
| COCCN(Cc1ccc(-c2ccccc2S(=O)(=O)NC#N)cc1)C(=O)Cc1csc2ccccc12 [Example 211] | 50.6% |  |
| N#CNS(=O)(=O)c1ccccc1-c1ccc(CN(CCO)C(=O)c2ccccc2Cl)cc1 [Example 56] | 69.0% |  |
| Cc1ccc(-c2ccc(CN(CCc3ccccc3)C(=O)CC3CCCCC3)cc2)c(S(=O)(=O)NC#N)c1 [Example 550] |  | Residual activity % of the NCBE at 10 μM [1]: 63.3% |
| N#CNS(=O)(=O)c1ccccc1-c1ccc(CN(Cc2ccccc2F)C(=O)CC2CCCC2)cc1 [Example 366] |  | Residual activity % of the NCBE at 10 μM [2]: 38.4% |
| N#CNS(=O)(=O)c1ccccc1-c1ccc(CN(CCc2ccc(S(N)(=O)=O)cc2)C(=O)Cc2ccccc2Cl)cc1 [Example 294] | 82.7% |  |
| COc1cc(C(=O)N(Cc2ccccc2)Cc2ccc(-c3ccccc3S(=O)(=O)NC#N)cc2)cc(OC)c1OC [Example 49] | 75.8% |  |
| COCCN(Cc1ccc(-c2ccccc2S(=O)(=O)NC#N)cc1)C(=O)CCCc1cccs1 [Example 187] | 62.4% |  |
| N#CNS(=O)(=O)c1ccccc1-c1ccc(CN(CCc2cccs2)C(=O)Cc2cccs2)cc1 [Example 141] | 71.1% |  |
| N#CNS(=O)(=O)c1ccccc1-c1ccc(CN(CC2CC2)C(=O)Cc2cccs2)cc1 [Example 144] | 60.3% |  |

| Compound | Residual activity % of the NCBE at 10 μM (10 μM) | other results |
| --- | --- | --- |
| CC(C)=CCCC(C)=CCN(Cc1ccc(-c2ccccc2S(=O)(=O)NC#N)cc1)C(=O)Cc1cccs1 [Example 313] | 17.2% |  |
| N#CNS(=O)(=O)c1ccccc1-c1ccc(CN(Cc2cccc(-c3ccccc3)c2)C(=O)CCOc2ccccc2)cc1 [Example 347] | 19.3% |  |
| COCCN(Cc1ccc(-c2ccccc2S(=O)(=O)NC#N)cc1)C(=O)CCCCc1cccs1 [Example 219] | 82.5% |  |
| Cc1ccc(-c2ccc(CN(CCc3ccccc3)C(=O)Cc3ccsc3)cc2)c(S(=O)(=O)NC#N)c1 [Example 542] |  | Residual activity % of the NCBE at 10 μM [1]: 67.4% |
| N#CNS(=O)(=O)c1ccccc1-c1ccc(CN(Cc2ccc(Cl)cc2)C(=O)CCC2CCCCC2)cc1 [Example 10] | 84.9% |  |
| N#CNS(=O)(=O)c1ccccc1-c1ccc(CN(Cc2cccs2)C(=O)CCCCc2ccccc2)cc1 [Example 253] | 35.3% |  |
| N#CNS(=O)(=O)c1ccccc1-c1ccc(CN(Cc2ccc(Cl)c(Cl)c2)C(=O)CCC2CCCCC2)cc1 [Example 264] | 74.3% |  |
| N#CNS(=O)(=O)c1ccccc1-c1ccc(CN(Cc2ccc3c(c2)OCO3)C(=O)c2cc3ccccc3s2)cc1 [Example 77] | 81.8% |  |
| N#CNS(=O)(=O)c1ccccc1-c1ccc(CN(Cc2nc3ccccc3[nH]2)C(=O)CCCCc2cccs2)cc1 [Example 224] | 79.8% |  |
| N#CNS(=O)(=O)c1ccccc1-c1ccc(CN(Cc2ccc(C(F)(F)F)cc2)C(=O)c2cc3ccccc3s2)cc1 [Example 79] | 61.7% |  |
| COc1ccc(CN(Cc2ccc(-c3ccccc3S(=O)(=O)NC#N)cc2)C(=O)c2ccccc2Cl)cc1 [Example 57] | 82.1% |  |
| C[C@H](c1ccccc1)N(Cc1ccc(-c2ccccc2S(=O)(=O)NC#N)cc1)C(=O)c1ccccc1Cl [Example 108] | 87.7% |  |
| CCN(Cc1ccc(-c2ccccc2S(=O)(=O)NC#N)cc1)C(=O)Cc1c[nH]c2ccccc12 [Example 207] | 31.0% |  |
| N#CNS(=O)(=O)c1ccccc1-c1ccc(CN(CC2CCCCC2)C(=O)Cc2cccs2)cc1 [Example 256] | 36.4% |  |
| N#CNS(=O)(=O)c1ccccc1-c1ccc(CN(C(=O)CCOc2ccccc2)C2CCCc3ccccc32)cc1 (centres unmarked) [Example 345] | 39.8% |  |
| Cc1ccc(CN(Cc2ccc(-c3ccccc3S(=O)(=O)NC#N)cc2)C(=O)c2ccccc2F)cc1 [Example 95] | 74.7% |  |
| N#CNS(=O)(=O)c1ccccc1-c1ccc(CN(Cc2ccc(Cl)c(Cl)c2)C(=O)Cc2cccs2)cc1 [Example 259] | 40.1% |  |
| COc1ccccc1CN(Cc1ccc(-c2ccccc2S(=O)(=O)NC#N)cc1)C(=O)c1cccs1 [Example 84] | 54.7% |  |
| N#CNS(=O)(=O)c1ccccc1-c1ccc(CN(C(=O)Cc2c[nH]c3ccccc23)C2CC2)cc1 [Example 205] | 41.7% |  |
| COc1ccccc1C(=O)N(Cc1ccc(-c2ccccc2S(=O)(=O)NC#N)cc1)CC1CCCO1 (centres unmarked) [Example 338] | 50.7% |  |
